Laboratory results: patent US7759397B2, “6-amino(aza)indane compounds suitable for treating disorders that respond to modulation of the dopamine D3 receptor” (Abbott GmbH & Co. KG, priority 2004, dated 2010)

Columns and labels:
[1] = biological target: T1, human dopamine D3 receptors (Homo sapiens, UniProt P35462); assay: Dopamine D3 receptor binding, displacement of [125I]-iodosulpride; conditions: ratio of receptor binding constants D2 over D3
T1 construct: expressed in transfected cells
Protocol: (§1) The substance to be tested was either dissolved in methanol/Chremophor® (BASF-AG) or in dimethyl sulfoxide and then diluted with water to the desired concentration.
(§2) Each assay mixture was run in triplicate.
The incubation buffer contained 50 mM tris, 120 mM NaCl, 5 mM KCl, 2 mM CaCl2, 2 mM MgCl2 and 0.1% bovine serum albumin, 10 μM […] and 0.1% ascorbic acid (prepared fresh daily). The buffer was adjusted to pH 7.4 with HCl. Dopamine D2L receptor:
(§3) After having been incubated at 25° C. for 60 minutes, the assay mixtures were filtered through a Whatman GF/B glass fiber filter under vacuum using a cell collecting device. The filters were transferred to scintillation viols using a filter transfer system. After 4 ml of Ultima Gold® (Packard) have been added, the samples were shaken for one hour and the radioactivity was then counted in a Beta-Counter (Packard, Tricarb 2000 or 2200CA). The cpm values were converted into dpm using a standard quench series and the program belonging to the instrument.
(§4) The inhibition curves were analyzed by means of iterative nonlinear regression analysis using the Statistical Analysis System (SAS) which is similar to the “LIGAND” program described by Munson and Rodbard.

[2] = biological target: T1, human dopamine D3 receptors; assay: as above; conditions: membranes of HEK-293 cells stably expressing human D3; 0.1 nM [125I]-iodosulpride; 25° C., 60 minutes; read-out: Ki(D3)* receptor binding constant
[3] = biological target: T2, human dopamine D2L receptors (long isoform) (Homo sapiens, UniProt P14416); assay: Dopamine D2L receptor binding, displacement of [125I] iodospiperone; conditions: membranes of HEK-293 cells stably expressing human D2L; 0.01 nM [125I] iodospiperone; 25° C., 60 minutes; read-out: Ki(D2)* receptor binding constant
T2 construct: expressed in transfected cells
T2 sequence (P14416 whole entry, canonical isoform): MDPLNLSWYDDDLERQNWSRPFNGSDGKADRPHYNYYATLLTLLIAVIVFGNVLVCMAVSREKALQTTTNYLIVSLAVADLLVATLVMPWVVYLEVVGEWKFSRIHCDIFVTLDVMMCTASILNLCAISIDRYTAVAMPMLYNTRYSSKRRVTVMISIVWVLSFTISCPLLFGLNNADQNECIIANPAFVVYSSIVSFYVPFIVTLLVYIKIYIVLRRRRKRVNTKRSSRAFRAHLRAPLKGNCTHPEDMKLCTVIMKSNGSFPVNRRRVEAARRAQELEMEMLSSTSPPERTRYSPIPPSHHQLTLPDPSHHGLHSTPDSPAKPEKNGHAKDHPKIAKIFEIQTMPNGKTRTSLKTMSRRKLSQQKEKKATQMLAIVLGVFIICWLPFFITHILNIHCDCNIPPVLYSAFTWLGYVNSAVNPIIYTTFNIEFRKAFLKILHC
Protocol: as §1, §2
The incubation buffer contained 50 mM tris, 120 mM NaCl, 5 mM KCl, 2 mM CaCl2, 2 mM MgCl2 and 0.1% bovine serum albumin. The buffer was adjusted to pH 7.4 with HCl.
as §3, §4

T1 sequence (P35462 whole entry): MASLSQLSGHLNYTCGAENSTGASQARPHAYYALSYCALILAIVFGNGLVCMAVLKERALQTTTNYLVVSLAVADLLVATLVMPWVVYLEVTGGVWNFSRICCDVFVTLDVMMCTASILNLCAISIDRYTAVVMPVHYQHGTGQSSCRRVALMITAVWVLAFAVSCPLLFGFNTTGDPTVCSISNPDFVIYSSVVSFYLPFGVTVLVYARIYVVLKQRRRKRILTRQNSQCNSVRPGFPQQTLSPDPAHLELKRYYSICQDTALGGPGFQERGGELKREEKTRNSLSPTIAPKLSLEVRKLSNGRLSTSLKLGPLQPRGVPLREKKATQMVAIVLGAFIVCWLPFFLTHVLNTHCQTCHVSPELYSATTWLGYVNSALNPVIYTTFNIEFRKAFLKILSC

| SMILES | Ki(D2)*/Ki(D3)* selectivity ratio [1] | Ki [2] [nM] | Ki [3] [nM] |
| --- | --- | --- | --- |
| CCCN1CCC[C@@H]2c3cc(NS(=O)(=O)c4ccc(C(C)C)cc4)ccc3C[C@H]21 [4 (RR)-isomer] | 134 | 9.4 | – |
| CCCN1CCC[C@H]2c3cc(NS(=O)(=O)c4ccc(C(C)C)cc4)ccc3C[C@@H]21 [4 (SS)-isomer] | 17 | 1.6 | – |
| CCCN(CCC)[C@@H]1Cc2ccc(NS(=O)(=O)c3ccc(C(C)C)cc3)cc2C1.Cl [Example 7, N—((R)-2-Dipropylamino-indan-5-yl)-4-isopropyl-benzenesulfonamide hydrochloride] | 195 | 0.26 | 51 |

Next, values leading:

| Ki(D2)*/Ki(D3)* selectivity ratio [1] | Ki [2] [nM] | Ki [3] [nM] | SMILES |
| --- | --- | --- | --- |
| 64 | 4 | 257 | CCCN[C@@H]1Cc2ccc(NS(=O)(=O)c3ccc(C(C)C)cc3)cc2C1 [Example 1, 4-Isopropyl-N—((R)-2-propylamino-indan-5-yl)-benzenesulfonamide] |
| 20 | 6.7 | 132 | CCCN[C@H]1Cc2ccc(NS(=O)(=O)c3ccc(C(C)C)cc3)cc2C1.Cl [Example 2, 4-Isopropyl-N—((S)-2-propylamino-indan-5-yl)-benzenesulfonamide hydrochloride] |
| 22 | 7 | 157 | CCCN[C@H]1Cc2ccc(N(C)S(=O)(=O)c3ccc(C(C)C)cc3)cc2C1 [Example 3, 4-isopropyl-N-methyl-N—((S)-2-propylamino-indan-5-yl)-benzenesulfonamide] |
